According to patent publication US20060099712A1, “Correlation of anti-cancer activity of dyes with redox potentials” (Eastman Kodak Company, priority 2004, published 2006):
In brackets after ≈: the same amount, converted by molar mass.

Columns and labels:
[1] = tested on: SCC 68 Human Squamous Cell Carcinoma; assay: Initial in vitro screening, squamous cell carcinoma cells; assay type: cell-based; conditions: for Selectivity: IC50 CV-1 / IC50 cell line 7 (squamous cell carcinoma); for IC50: read-out: IC50 (concentration at which 50% of the cells of the culture are killed)
Excerpt: (§1) Other publications have shown that some cyanine dyes show anti-cancer activity. See I. Minami, Y. Kozai, H. Nomura and T. Tashiro, Chem. Phar. Bull. 30:3106 (1982); W. M. Anderson, D. L. Delinick, L. Benninger, J. M. Wood, S. T. Smiley and L. B. Chen, Biochemical Pharmacology, 45:691 (1993). […] (See L. G. S. Brooker, L. A. Sweet, Science, 105, (1947) and I. Minami, Y. Kozai, H. Nomura, T. Tashiro, Chem. Pharm. Bull., 30,3106 (1982) on chemotherapeutic investigations of cyanine dyes.) Table I lists initial in vitro screening results in various cell lines and a comparison with Adriamycin, which is a widely used chemotherapeutic agent.
(§2) Description of Cell Line • 1. CV-1 Normal Monkey Kidney Epithelial (control) • 2. CX-1 Human Colon Carcinoma • 3. Human Breast Carcinoma • 4. Human Pancreatic Carcinoma • 5. Human Bladder Carcinoma • 6. Human Lung Carcinoma • 7. Human Squamous Cell Carcinoma • 8. Human Adrenal Cortex Carcinoma

[2] = tested on: CCL 185 Human Lung Carcinoma; assay: Initial in vitro screening, lung carcinoma cells; assay type: cell-based; conditions: for Selectivity: IC50 CV-1 / IC50 cell line 6 (lung carcinoma); for IC50: read-out: IC50 (concentration at which 50% of the cells of the culture are killed)
Excerpt: as §1, §2

[3] = Electrochemical oxidation potential measurement, SHACV / fast scan CV; assay type: physicochemical; conditions: Table XIX; oxidation potential vs. Ag/AgCl; in V (unit assumed)
Excerpt: If a published reduction potential is not available, suitable techniques for measuring reduction potential are available. Accurate electrochemical oxidation and reduction potentials for these organic dyes can be measured by the techniques of fast scan cyclic voltommetry (CV) or second harmonic ac voltommetry (SHACV). SHACV measurements are made as described by Lenhard in the Journal of Imaging Science volume 30, 1986 pp 27-35 using a commercially available (Princeton Applied Research Corp.) potentiostat in conjunction with voltage programmer, a conventional lock-in amplifier, and a low-distortion oscillator. The SHACV method utilizes an ac voltage waveform (of a frequency greater than or equal to 400 hz) that is superimposed on a DC potential ramp. On the other hand, the measurement of the oxidation or reduction potential by the CV method utilizes a (high frequency) triangular voltage waveform. The general procedures for measuring potentials by this method have been described by Wightman in Analytical Chemistry, 1984, vol. 56, pp524 and Journal of Physical Chemistry, 1984, vol. 88, pp3915. The specific application of this technique to the measurement of cyanine dye potentials has been reported by Nomura and Okazaki, Chemistry Letters, 1990, pp2231-2234. Commercial instrumentation especially designed for fast scan (i.e., high frequency) CV is available. It is noteworthy that because of the complicated nature of many of the cyanine dyes, electrochemical reactions, conventional slow scan cyclic voltommetry or polarography methods (as described by R. Large in Photographic Sensitivity, R. Cox, ed., Academic Press, New York, 1973, pp 241-263) provide only approximate values for oxidation and reduction potentials. Errors as large as 0.4 V from the true potential can be obtained by using slow scan CV or electrochemical methods.
The procedure for measuring the oxidation or reduction potential by the SHACV or fast scan CV method utilizes solutions of acetonitrile (or similar nonaqueous solvent) with added tetrabutylammonium tetrafluoroborate TBABF4 at a concentration of 0.1 M and ca. 5×10^−4 M of the cyanine, oxonol, or merocyanine dye. For measurement of the reduction potential the solution must be deaerated with argon prior to examination. The preferred working electrode is a Pt disk (ca. 0.02 cm^2) that is polished with 1 μm diamond paste, rinsed with water, and dried before each experiment. The reference electrode is a NaCl saturated calomel electrode. The cell and reference electrodes are maintained at 22 C. A value of 40 mV is added to the measured potentials to convert the number to that corresponding to an Ag/AgCl reference electrode. If a solvent other than acetonitrile is used then the measured potential must be referenced to a standard organic redox system such as ferrocene and corrected accordingly.
The procedure for measuring the oxidation or reduction potential by the SHACV method utilizes solutions of acetonitrile (or similar nonaqueous solvent) with added tetrabutylammonium tetrafluoroborate TBABF4 at a concentration of 0.1 M and ca. 5×10^−4 M of the cyanine, oxonol, or merocyanine dye. […] A value of 40 mV is added to the measured potentials to convert the number to that corresponding to an Ag/AgCl reference electrode. If a solvent other than acetonitrile is used then the measured potential must be referenced to a standard organic redox system such as ferrocene and corrected accordingly.

[4] = cell line 7, SCC 68 human squamous cell carcinoma, unit from method
[5] = cell line 6, CCL 185 human lung carcinoma, unit from method

For `CCN1C(=CC=Cc2sc3cc4ccccc4cc3[n+]2CC)Sc2cc3ccccc3cc21` [AC-2], the Selectivity [1] was >60, the “IC50 (concentration at which 50% of the cells of the culture are killed)” value [1, 4] was “<.005 µg/mL” and the Selectivity [2] was >60. The “IC50 (concentration at which 50% of the cells of the culture are killed)” value [2, 5] was “<.005 µg/mL”.

`COc1cccc2c1C(=O)c1c(O)c3c(c(O)c1C2=O)C[C@@](O)(C(=O)CO)C[C@@H]3O[C@H]1C[C@H](N)[C@H](O)[C@H](C)O1` [Adriamycin, reference compound] showed a Selectivity [1] of 10, an IC50 [1, 4] of 0.08 µg/mL (≈ 0.147 µM) and a Selectivity [2] of 11. The IC50 [2, 5] was 0.07 µg/mL (≈ 0.129 µM).

In the case of `CCN1/C(=C/C=C/c2sc3ccccc3[n+]2CC)Sc2ccccc21.[I-]` [Dye D-101], the Eox [3] is reported as 0.902, the Selectivity [1] is reported as 13.3 and the Selectivity [2] is reported as 50.

Molecule `CCN1/C(=C\C=C\C2=[N+](CC)c3ccccc3C2(C)C)C(C)(C)c2ccccc21` [Dye D-103] has an Eox [3] of 1.088.

Molecule `CCN1/C(=C/C=C/c2sc3cc4ccccc4cc3[n+]2CC)Sc2cc3ccccc3cc21` [Dye D-109] has an Eox [3] of 1.015.

`CCN1C(=CC=Cc2sc3cc4ccccc4nc3[n+]2CC)Sc2cc3ccccc3nc21` [Dye D-150] showed an Eox [3] of 1.145, a Selectivity [1] of 30 and an IC50 [1, 4] of 0.1 µg/mL. The Selectivity [2] was 150 and the IC50 [2, 5] was 0.02 µg/mL.

In the case of `CCN1/C(=C/C=C/c2sc3cc4ccccc4cc3[n+]2CC)Sc2cc3ccccc3cc21` [Dye D-160], the Eox [3] is reported as 1.015, the IC50 [1, 4] is reported as < 0.005 µg/mL and the IC50 [2, 5] is reported as < 0.005 µg/mL.
